We go through 14 molecules from patent US5866545A, “Substituted ketone derivatives as inhibitors of interleukin-1β converting enzyme” (Merck & Co., Inc., priority 1996, dated 1999).

The structures appear in SMILES notation. Like-named read-outs stand apart in the source and are kept apart here.

This assay addresses T1, interleukin-1β converting enzyme (ICE) (Homo sapiens, UniProt P29466).
T1 sequence (P29466 120-297 limits assumed): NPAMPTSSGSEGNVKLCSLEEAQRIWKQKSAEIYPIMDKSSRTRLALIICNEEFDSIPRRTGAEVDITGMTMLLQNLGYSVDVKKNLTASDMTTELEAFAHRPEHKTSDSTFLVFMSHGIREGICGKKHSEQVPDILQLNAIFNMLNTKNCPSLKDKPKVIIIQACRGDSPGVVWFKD
T1 sequence (P29466 317-404 limits assumed): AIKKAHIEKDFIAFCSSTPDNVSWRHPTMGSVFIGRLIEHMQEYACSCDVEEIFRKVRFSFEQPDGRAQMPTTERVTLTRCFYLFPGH
Kind of assay: Fluorometric assay of inhibition of ICE hydrolysis of peptide substrate Ac-Tyr-Val-Ala-Asp-AMC. Particulars: for Ki: reversible inhibition; for kon: irreversible inhibition. The format is biochemical. The source says: Inhibition of Interleukin-1β Converting Enzyme (ICE).
A fluorometric assay used to evaluate the inhibition of interleukin-1βconverting enzyme (ICE) hydrolysis of a peptide substrate (Ac-Tyr-Val-Ala-Asp-AMC) by the compounds described in Examples 1-15 has been described in detail (N. A. Thornberry et al., Nature 1992, 356, 768-774). Briefly, liberation of AMC (aminomethylcoumarin) from the substrate was monitored continuously in a spectrofluorometer using an excitation wavelength of 380 nm and an emission wavelength of 460 nm. Details for determining kinetic constants for reversible and irreversible inhibition are described (N. A. Thomberry et al., Biochemistry 1994, 33, 3934-3940).
Inhibition of Interleukin-1β Converting Enzyme (ICE) by Examples 1-14

For `C=CCOC(=O)NC(CC(=O)O)C(=O)COc1ccccc1` (centres unmarked) [Example 1, N-Allyloxycarbonyl-3-amino-4-oxo-5-phenoxy-pentanoic acid], the Ki (commonly a dissociation constant, usually derived from enzyme kinetics or from competition with a known ligand) was 3500 nM. Take `C=CCOC(=O)NC(CC(=O)O)C(=O)COc1cccc2ccccc12` (centres unmarked) [Example 2, N-Allyloxycarbonyl-3-amino-5-(1-naphthyloxy)-4-oxopentanoic acid]: the Ki turned out to be 9500 nM. Take `C=CCOC(=O)NC(CC(=O)O)C(=O)COc1ccc2ccccc2c1` (centres unmarked) [Example 3, N-Allyloxycarbonyl-3-amino-5-(2-naphthyloxy)-4-oxopentanoic acid]: the Ki amounted to 5000 nM. `C=CCOC(=O)NC(CC(=O)O)C(=O)COc1cc2ccccc2cc1C(N)=O` (centres unmarked) [Example 4, N-Allyloxycarbonyl-3-amino-5-(3-aminocarbonyl-2-naphthyloxy)-4-oxopentanoic acid]: the Ki was found to be 300 nM. Compared with the last molecule, the Ki is about 17-fold lower. `C=CCOC(=O)NC(CC(=O)O)C(=O)COc1cc2ccccc2cc1C(=O)Nc1ccccc1` (centres unmarked) [Example 5, N-Allyloxycarbonyl-3-amino-5-(3-(N-phenyl)aminocarbonyl-2-naphthyloxy)-4-oxopentanoic acid] showed an inhibition constant (Ki) of 500 nM. Consider `C=CCOC(=O)NC(CC(=O)O)C(=O)COc1cc2ccccc2cc1C#N` (centres unmarked) [Example 6, N-Allyloxycarbonyl-3-amino-5-(3-cyano-2-naphthyloxy)-4-oxopentanoic acid], for which the Ki amounted to 620 nM. Besides, the kon (usually a measure of how fast the partners come together) (read-out: kon) was 4500 M⁻¹ s⁻¹.

With `C=CCOC(=O)NC(CC(=O)O)C(=O)COc1cc2ccccc2cc1CO` (centres unmarked) [Example 7, N-Allyloxycarbonyl-3-amino-5-(3-hydroxymethyl-2-naphthyloxy)-4-oxopentanoic acid], the affinity, expressed as Ki, was 1200 nM. In turn, `C=CCOC(=O)NC(CC(=O)O)C(=O)COc1cc2ccccc2cc1C(=O)OC` (centres unmarked) [Example 8, N-Allyloxycarbonyl-3-amino-5-(3-methoxycarbonyl-2-naphthyloxy)-4-oxopentanoic acid] returned a Ki of 2600 nM. Against the preceding molecule, the Ki is about 2.2-fold higher. For the molecule `C=CCOC(=O)NC(CC(=O)O)C(=O)COc1cc2ccccc2cc1C(=O)NCCO` (centres unmarked) [Example 9, N-Allyloxycarbonyl-3-amino-5-(3-(2-hydroxyethyl-1-aminocarbonyl)-2-naphthyloxy)-4-oxopentanoic acid], the on-rate (kon) was 1000 M⁻¹ s⁻¹ and the affinity, expressed as Ki, was 520 nM. The matching figures for `C=CCOC(=O)NC(CC(=O)O)C(=O)COc1cc2ccccc2cc1-n1ccnc1` (centres unmarked) [Example 10, N-Allyloxycarbonyl-3-amino-5-(3-imidazolyl-2-naphthyloxy)-4-oxopentanoicacid]: 12,000 M^-1 s^-1 and 90 nM.

The molecule `CC(=O)N[C@@H](Cc1ccc(O)cc1)C(=O)N[C@H](C(=O)N[C@@H](C)C(=O)NC(CC(=O)O)C(=O)COc1ccccc1)C(C)C` (some centres unmarked) [Example 11, N-(N-Acetyl-(L)-tyrosinyl-(L)-valinyl-(L)-alaninyl)-3-amino-5-phenoxy-4-oxopentanoic acid] had a Ki of 3 nM. In other words, the single-digit nanomolar range. On to `CC(C)[C@H](NC(=O)OCc1ccccc1)C(=O)N[C@@H](C)C(=O)NC(CC(=O)O)C(=O)COc1cc2ccccc2cc1C(N)=O.CCN(CC)CC` (some centres unmarked) [Example 12, N-(N-Carbobenzyloxy-(L)-valinyl-(L)-alaninyl)-3-amino-5-(3-amino-carbonyl-naphthyl-2-oxy)-4-oxo-pentanoic acid, triethylamine salt], for which the kon is listed as 430,000 M^-1 s^-1. On the same count and under the same terms, next, `CC(C)[C@H](NC(=O)OCc1ccccc1)C(=O)N1CCC[C@H]1C(=O)NC(CC(=O)O)C(=O)COc1cc2ccccc2cc1C(N)=O` (some centres unmarked) [Example 13, N-(N-Carbobenzyloxy-(L)-valinyl-(L)-prolinyl)-3-amino-5-(3-amino-carbonyl-naphthyl-2-oxy)-4-oxo-petanoic acid]: 340,000 M^-1 s^-1. On to `NC(=O)c1cc2ccccc2cc1OCC(=O)C(CC(=O)O)NC(=O)c1cc2ccccc2[nH]1` (centres unmarked) [Example 14, N-(2-indoloyl)-3-amino-5-(3-aminocarbonyl-naphthyl-2-oxy)-4-oxo-pentanoic acid], for which the kon was found to be 390 M⁻¹ s⁻¹.
